Several values for one entry are separate records, joined by “and”; a condition that tells them apart may be missing. Equal values may be shown once. Where a name gives a salt, the structure may show the parent alone. Read-outs that look alike come from different tables or passages of the source.
What was measured:
toxicity (L.D.50) = type: in vivo, mice; details: compared with dl mixture; listed as d(+) isomer
morphine = assay: modified rat tail jerk assay, antagonism of morphine; type: in vivo, rats; details: for minimal effective dose: Rattus norvegicus, morphine 5 mg./kg. subcutaneous
Method: The ability of the compounds of this invention to antagonize the action of morphine, an opiate, is shown by the following modification of the aforementioned rat tail jerk assay: The standard assay procedure is used with the exception that a 7 amps. current is used instead of a 6 amps. current in the hot wire to decrease the measurable agonist effects of the antagonist. The drugs under test are then administered to groups of rats at different dose levels at different times prior to test, with a 5 mg./kg. dose of morphine invariably being administered 10 minutes prior to test. Positive evidence of antagonism is a decreased reaction time over that to be expected from the morphine. […] Among the compounds of this invention, those in which R in Structure I is cyclopropylmethyl are the preferred antagonists, showing activity in the above test procedure. […] In a series of determinations, it was ascertained that the minimum subcutaneous dose necessary to reduce the analgesic effects of a 5 mg./kg. subcutaneous dose of morphine was in the range 2.5-5.0 mg./kg. and the minimum oral dose, 5-10 mg./kg.

rat tail jerk = rat tail jerk assay (increase in reaction time over control); type: in vivo
Source text: The compounds of this invention are also active in the rat tail jerk assay, another standard pharmacologic test for analgesic activity of the opiate-type. Such activity is manifested as an increase in the reaction time of the animal in removing (jerking) its tail from a nearby heat stimulus (a resistance wire) after drug administration compared to control time (no drug administered). Table 2 which follows gives the increased reaction times over control times produced by the compounds of this invention when administered subcutaneously. In Tables 2 and 3, column 1 gives the name of the compound; column 2, the dose; column 3, time of observation after administration of the drug; column 4, the increase in reaction time above control in seconds; and column 5, the level of significance of the results ("p" value). […] All drugs were administered as aqueous solutions. More than one value for a given dose level indicates multiple determinations. The results are not averaged.

[1] = system: writhing in mice induced by the intraperitoneal injection of acetic acid; assay: mouse-writhing test (inhibition of writhing induced by intraperitoneal acetic acid); type: in vivo; details: for ED50: Mus musculus, read-out: Median inhibiting dose (I.D.50)
Source text: In the Table, column 1 gives the name of the compund; column 2, the dosage in mg./kg. of mouse weight; column 3, the route of administration of the drug ("S.C." is subcutaneous and "or" is oral); and column 4, the percent inhibition found at the particular dose level. […] Median inhibiting doses (I.D.50) are also included in the Table.

[2] = system: morphine induced Straub tail; assay: blocking of morphine induced Straub tail in mice; type: in vivo; details: 50 mg./kg. subcutaneous, morphine 40 mg./kg. subcutaneous
Method: In this assay, a 40 mg./kg. dose of morphine was administered to mice 15 minutes prior to assay, and the test drug at various intervals before assay. Trans-dl-1 -cyclopropylmethyl-3a-(m-hydroxyphenyl)-1,2,3,3a,4,5,6,7,7a,8-decahydroisoquinoline maleate gave a 100 percent block of the Straubed tail effected by a subcutaneous injection of 40 mg./kg. of morphine when the test drug was given at a dose of 50 mg./kg. subcutaneously 15 minutes prior to assay, and 80 percent when given 30 minutes prior to assay. The l(-) isomer gave 100 percent blocking on the morphine-induced Straub tail at 50 and 20 mg./kg. doses 15 and 30 minutes before assay.

[3] = subcutaneous, 50 mg./kg., 15 min
[4] = subcutaneous, 50 mg./kg., 30 min
[5] = subcutaneous, 50 mg./kg., 120 min
[6] = subcutaneous, 100 mg./kg., 15 min

In the case of `O=C(O)/C=C\C(=O)O.Oc1cccc([C@@]23CCCC[C@H]2CN(CC2CC2)CC3)c1` (stereo in doubt) [Trans-d(+)-1-cyclopropylmethyl-3a-(m-hydroxyphenyl)-1,2,3,3a] [Trans-d(+)-1-cyclopropylmethyl-3a-(m-hydroxyphenyl)-1,2,3,3a,4,5,6,7,7a,8-decahydroisoquinoline maleate], the “toxicity relative to the dl mixture” value (toxicity (L.D.50)) is reported as “about the same toxicity as the dl mixture”, the morphine antagonistic effects (morphine; 100 mg./kg. subcutaneous, 60 minutes before test) is reported as “shows morphine antagonistic effects” and the “Increase in Reaction Time Over Control” value (rat tail jerk; oral, 100 mg./kg., 30 min) is reported as 0 s. The “Increase in Reaction Time Over Control” value (rat tail jerk; oral, 100 mg./kg., 60 min) was 0 s, the “Increase in Reaction Time Over Control” value (rat tail jerk; oral, 100 mg./kg., 120 min) was “.40 s” and the “Increase in Reaction Time Over Control” value (rat tail jerk; oral, 150 mg./kg., 15 min) was 0 s. The “Increase in Reaction Time Over Control” value (rat tail jerk; oral, 150 mg./kg., 30 min) was 0 s, the “Increase in Reaction Time Over Control” value (rat tail jerk; oral, 150 mg./kg., 60 min) was “.35 s” and the “Increase in Reaction Time Over Control” value (rat tail jerk; oral, 150 mg./kg., 120 min) was “.30 s”. The “Increase in Reaction Time Over Control” value (rat tail jerk; oral, 150 mg./kg., 180 min) was “.30 s”, the “lethality in the rat tail jerk assay” value (rat tail jerk; oral, 200 mg./kg.) was “lethal” and the “Increase in Reaction Time Over Control” value (rat tail jerk; subcutaneous, 10 mg./kg., 15 min) was 0 s. For the same compound, the “Increase in Reaction Time Over Control” value (rat tail jerk; [3]) was “.25 s”, the “Increase in Reaction Time Over Control” value (rat tail jerk; [4]) was 1.30 s and the “Increase in Reaction Time Over Control” value (rat tail jerk; subcutaneous, 50 mg./kg., 60 min) was 2.25 s. The “Increase in Reaction Time Over Control” value (rat tail jerk; [5]) was “.10 s”, the “Increase in Reaction Time Over Control” value (rat tail jerk; [6]) was “.50 s” and the “Increase in Reaction Time Over Control” value (rat tail jerk; subcutaneous, 100 mg./kg., 30 min) was 1.55 s. For the same compound, the “Increase in Reaction Time Over Control” value (rat tail jerk; subcutaneous, 100 mg./kg., 60 min) was 3.50 s, the “Increase in Reaction Time Over Control” value (rat tail jerk; subcutaneous, 100 mg./kg., 120 min) was 1.15 s and the “% Inhibition” value ([1]; 5 mg./kg. S.C., reading at 0.25 hours) was “inact”. For the same compound, the “% Inhibition” value ([1]; 50 mg./kg. S.C., reading at 0.25 hours) was 44% and the “% Inhibition” value ([1]; 100 mg./kg. S.C., reading at 0.25 hours) was 51%.
For `Oc1cccc([C@]23CCCC[C@@H]2CN(CC2CC2)CC3)c1` (stereo in doubt) [Trans-dl-1-cyclopropylmethyl-3a-(m-hydroxyphenyl)-1,2,3,3a,4,5,6,7,7a,8-decahydroisoquinoline maleate], the “blocking of the analgesic effect of morphine” value (morphine; 50 mg./kg. subcutaneous, 30 and 60 minutes prior, morphine 5 mg./kg.) was “very effectively blocked the analgesic effect of 5 mg./kg. of morphine”, the minimal effective dose (morphine; sc, subcutaneous, read-out: minimum subcutaneous dose necessary to reduce the analgesic effects of morphine) was 2.5 to 5 mg/kg and the minimal effective dose (morphine; oral, read-out: minimum oral dose necessary to reduce the analgesic effects of morphine) was 5 to 10 mg/kg. The antagonism of morphine (morphine; dose not stated) was “antagonizes the effects of morphine”, the “Increase in Reaction Time Over Control” value (rat tail jerk; oral, 5 mg./kg., 15 min) was 0 s and the “Increase in Reaction Time Over Control” value (rat tail jerk; oral, 10 mg./kg., 15 min) was “.90 s”. The “Increase in Reaction Time Over Control” value (rat tail jerk; oral, 15 mg./kg., 15 min) was “.95 s”, the “Increase in Reaction Time Over Control” value (rat tail jerk; oral, 20 mg./kg., 30 min) was 1.17 s and the “Increase in Reaction Time Over Control” value (rat tail jerk; oral, 20 mg./kg., 45 min) was 1.33 s. For the same compound, the “Increase in Reaction Time Over Control” value (rat tail jerk; oral, 25 mg./kg., 15 min) was 2.10 s, the “Increase in Reaction Time Over Control” value (rat tail jerk; oral, 25 mg./kg., 30 min) was “.30 s” and the “Increase in Reaction Time Over Control” value (rat tail jerk; oral, 50 mg./kg., 10 min) was 2.83 s and 2.73 s and 2.88 s. The “Increase in Reaction Time Over Control” value (rat tail jerk; oral, 50 mg./kg., 15 min) was 4.25 s and 4.92 s and 5.08 s, the “Increase in Reaction Time Over Control” value (rat tail jerk; oral, 50 mg./kg., 60 min) was 2.42 s and the “Increase in Reaction Time Over Control” value (rat tail jerk; oral, 50 mg./kg., 90 min) was 1.38 s. The “Increase in Reaction Time Over Control” value (rat tail jerk; oral, 50 mg./kg., 120 min) was 1.17 s, the “Increase in Reaction Time Over Control” value (rat tail jerk; oral, 100 mg./kg., 5 min) was “.55 s” and the “Increase in Reaction Time Over Control” value (rat tail jerk; oral, 100 mg./kg., 10 min) was 2.45 s. For the same compound, the “Increase in Reaction Time Over Control” value (rat tail jerk; oral, 100 mg./kg., 15 min) was 4.85 s and 7.46 s and 4.50 s, the “Increase in Reaction Time Over Control” value (rat tail jerk; oral, 100 mg./kg., 15 min, 20 sec. cut off) was 5.45 s and the “Increase in Reaction Time Over Control” value (rat tail jerk; oral, 100 mg./kg., 30 min) was 3.45 s and 4.05 s and 6.79 s and 4.38 s. The “Increase in Reaction Time Over Control” value (rat tail jerk; oral, 100 mg./kg., 60 min) was 2.05 s, the “Increase in Reaction Time Over Control” value (rat tail jerk; oral, 200 mg./kg., 15 min, 20 sec. cut off) was 7.25 s and 7.13 s and the “Increase in Reaction Time Over Control” value (rat tail jerk; oral, 200 mg./kg., 30 min) was 2.75 s and 1.42 s. The “Increase in Reaction Time Over Control” value (rat tail jerk; oral, 200 mg./kg., 45 min) was 5.79 s, the “Increase in Reaction Time Over Control” value (rat tail jerk; oral, 300 mg./kg., 15 min) was 7.75 s and the “Increase in Reaction Time Over Control” value (rat tail jerk; subcutaneous, 0.5 mg./kg., 15 min) was “.75 s”. The “Increase in Reaction Time Over Control” value (rat tail jerk; subcutaneous, 1 mg./kg., 15 min) was “.50 s”, the “Increase in Reaction Time Over Control” value (rat tail jerk; subcutaneous, 2 mg./kg., 15 min) was 2.21 s and the “Increase in Reaction Time Over Control” value (rat tail jerk; subcutaneous, 3 mg./kg., 15 min) was 2.04 s. The “Increase in Reaction Time Over Control” value (rat tail jerk; subcutaneous, 7 mg./kg., 15 min) was 4.25 s, the “Increase in Reaction Time Over Control” value (rat tail jerk; subcutaneous, 20 mg./kg., 15 min) was 5.17 s and 3.70 s and the “Increase in Reaction Time Over Control” value (rat tail jerk; subcutaneous, 25 mg./kg., 15 min) was 4.40 s. The “Increase in Reaction Time Over Control” value (rat tail jerk; subcutaneous, 30 mg./kg., 15 min, 20 sec. cut off) was 4.25 s, the “Increase in Reaction Time Over Control” value (rat tail jerk; subcutaneous, 40 mg./kg., 15 min) was 3.90 s and the “Increase in Reaction Time Over Control” value (rat tail jerk; subcutaneous, 50 mg./kg., 5 min, 15 sec. cut off) was 4.85 s. For the same compound, the “Increase in Reaction Time Over Control” value (rat tail jerk; subcutaneous, 50 mg./kg., 10 min, 15 sec. cut off) was 4.95 s, the “Increase in Reaction Time Over Control” value (rat tail jerk; subcutaneous, 50 mg./kg., 10 min, 20 sec. cut off) was 4.85 s and the “Increase in Reaction Time Over Control” value (rat tail jerk; [3]) was 4.0 s and 5.98 s. The “Increase in Reaction Time Over Control” value (rat tail jerk; subcutaneous, 50 mg./kg., 15 min, 15 sec. cut off) was 6.50 s, the “Increase in Reaction Time Over Control” value (rat tail jerk; subcutaneous, 50 mg./kg., 15 min, 20 sec. cut off) was 6.08 s and the “Increase in Reaction Time Over Control” value (rat tail jerk; [4]) was 5.75 s. The “Increase in Reaction Time Over Control” value (rat tail jerk; subcutaneous, 50 mg./kg., 30 min, 15 sec. cut off) was 5.10 s, the “Increase in Reaction Time Over Control” value (rat tail jerk; subcutaneous, 50 mg./kg., 45 min) was 3.00 s and the “Increase in Reaction Time Over Control” value (rat tail jerk; subcutaneous, 50 mg./kg., 90 min) was 1.85 s. The “Increase in Reaction Time Over Control” value (rat tail jerk; [5]) was 2.45 s, the “Increase in Reaction Time Over Control” value (rat tail jerk; subcutaneous, 50 mg./kg., 180 min) was 1.80 s and the “Increase in Reaction Time Over Control” value (rat tail jerk; subcutaneous, 60 mg./kg., 15 min, 20 sec. cut off) was 4.40 s. For the same compound, the “Increase in Reaction Time Over Control” value (rat tail jerk; [6]) was 4.15 s, the “Increase in Reaction Time Over Control” value (rat tail jerk; subcutaneous, 200 mg./kg., 15 min) was 5.65 s and the “% Inhibition” value ([1]; 2 mg./kg. S.C., reading at 0.5 hours) was 6%. The “% Inhibition” value ([1]; 5 mg./kg. S.C., reading at 0.5 hours) was 66%, the “% Inhibition” value ([1]; 10 mg./kg. S.C., reading at 0.5 hours) was 72% and the “% Inhibition” value ([1]; 20 mg./kg. S.C., reading at 0.5 hours) was 99%. The “% Inhibition” value ([1]; 20 mg./kg. oral, reading at 0.5 hours) was 46%, the “% Inhibition” value ([1]; 50 mg./kg. oral, reading at 0.5 hours) was 56% and the “% Inhibition” value ([1]; 100 mg./kg. S.C., reading at 0.5 hours) was 100%. The “% Inhibition” value ([1]; 100 mg./kg. oral, reading at 0.5 hours) was 92%, the ED50 ([1]; sc, S.C.) was 2 to 5 mg/kg and the ED50 ([1]; oral) was 20 to 50 mg/kg. For the same compound, the “block of the Straubed tail” value ([2]; 15 minutes prior) was 100% and the “block of the Straubed tail” value ([2]; 30 minutes prior) was 80%.

From US4001248A, “N-cycloalkylmethyl decahydroisoquinolines” (Eli Lilly and Company, priority 1974, dated 1977)
